Reference: patent US20250339569A1, “CARBONIC ANHYDRASE IX LIGANDS” (priority 2021, published 2025)
Read-outs that look alike come from different tables or passages of the source. Values belong to the compound of their own block, whether it stands above or below them. Starred links: 1 amine or outer side, 2 acyl side, 3 side chain; linkers in the order of their positions; H or OH if unused. Positions of bridges follow the written chain, without caps; N, C: chain ends. Non-standard residues stand in square brackets, D forms with d. Residues, ends and D or L forms follow the SMILES beside them. *: point of attachment. NH(CH2)3NHDOTA = O=C(O)CN1CCN(CC(=O)O)CCN(CC(=O)NCCCN*)CCN(CC(=O)O)CC1; DOTA = O=C(O)CN1CCN(CC(=O)O)CCN(CC(=O)*)CCN(CC(=O)O)CC1; mXylylene = c1cc(C[*:1])cc(C[*:2])c1; X2 = O=C(CN1CCC(N[*:1])CC1)[*:2]; Propanoyl(3-OH) = O=C(CCO)*

Tests used:
[1] = target: T1, CAIX-expressing human HT-29 colorectal cancer cells (Homo sapiens, UniProt Q16790); assay: FACS binding assay (IC50 determination, competition with tracer 3BP-2776 or 3BP-4149); settings: 4° C., 1 hour, read-out: pIC50 category (activity) (converted)
T1 construct: CAIX-expressing human HT-29 colorectal cancer cells; host or cells: HT-29 human colorectal cancer cells
Outline: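 HT-29 cells in FACS buffer (PBS, 1% FCS) at 500.000 cells/ml were exposed to compounds competing with a labelled tracer, with biotinylated compounds detected by 1 μg/mL APC-streptavidin for 30 min on ice. APC/Cy5 median fluorescence was read by flow cytometry and IC50 derived by 4PL fit.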

[2] = target: T2, human carbonic anhydrase IX (hCAIX-Fc) (Homo sapiens, UniProt Q16790); assay: Surface plasmon resonance assay with hCAIX-Fc; format: binding; settings: 25° C.; for t1/2 category (activity): SPR dissociation half-life, hCAIX-Fc; for Kd: SPR, hCAIX-Fc captured, read-out: pKD category (activity) (converted)
T2 construct: purchased SinoBliological (Sino Biological) 10107-H02H

[3] = Plasma stability assay, mouse plasma; settings: mouse plasma, 37°C
[4] = FACS competition on HT-29 cells, Tracer ID 3BP-2776 (10 nM, biotin-labeled)

SMILES: CC(C)C[C@@H]1NC(=O)[C@H](Cc2c[nH]c3ccccc23)NC(=O)[C@H](CC(=O)O)NC(=O)[C@H]2CCCN2C(=O)[C@H](CCC(=O)O)NC(=O)[C@@H](NC(=O)[C@H](Cc2ccc(O)cc2)NC(=O)[C@@H](NC(=O)CN2CCC(NC(=O)CN3CCN(CC(=O)O)CCN(CC(=O)O)CCN(CC(=O)O)CC3)CC2)C(C)C)CSCc2cccc(c2)CSC[C@@H](C(N)=O)NC(=O)[C@H](CCCNC(=N)N)NC(=O)[C@H](Cc2c[nH]c3ccccc23)NC(=O)[C@H]([C@@H](C)O)NC1=O [3BP-3599] ({DOTA}-[X2]VYCE[dP]DWLTWRC-NH2; linker 4-13 via mXylylene)
IC50 [1, 4]: < 10 nM | t1/2 category (activity) [2]: B (t1/2 between 5.1 and 15.0 minutes) | Kd [2]: < 10 nM | % intact compound remaining (incubation time) ([3]; 6 h): 52%

SMILES: CC(C)C[C@@H]1NC(=O)[C@H](Cc2c[nH]c3ccccc23)NC(=O)[C@H](CC(=O)O)NC(=O)[C@H]2CCCN2C(=O)[C@H](CCC(=O)O)NC(=O)[C@@H](NC(=O)[C@H](Cc2ccc(O)cc2)NC(=O)CCO)CSCc2cccc(c2)CSC[C@@H](C(N)=O)NC(=O)[C@H](CCC(=O)NCCCNC(=O)CN2CCN(CC(=O)O)CCN(CC(=O)O)CCN(CC(=O)O)CC2)NC(=O)[C@H](Cc2c[nH]c3ccccc23)NC(=O)[C@H]([C@@H](C)O)NC1=O [3BP-3842] ({Propanoyl(3-OH)}-YCE[dP]DWLTWE(NH(CH2)3NHDOTA)C-NH2; linker 2-11 via mXylylene)
IC50 [1, 4]: < 10 nM | t1/2 category (activity) [2]: C (t1/2 between 2.1 and 5.0 minutes) | Kd [2]: < 10 nM | % intact compound remaining (incubation time) ([3]; 24 h): >95%

SMILES: CC(=O)N[C@H](C(=O)N[C@@H](Cc1ccccc1)C(=O)N[C@H]1CSCc2cccc(c2)CSC[C@@H](C(N)=O)NC(=O)[C@H](CCC(=O)NCCCNC(=O)CN2CCN(CC(=O)O)CCN(CC(=O)O)CCN(CC(=O)O)CC2)NC(=O)[C@H](Cc2c[nH]c3ccccc23)NC(=O)[C@H]([C@@H](C)O)NC(=O)[C@H](CC(C)C)NC(=O)[C@H](Cc2c[nH]c3ccccc23)NC(=O)[C@H](CC(=O)O)NC(=O)[C@H]2CCCN2C(=O)[C@H](CCC(=O)O)NC1=O)C(C)C [3BP-3874] (Ac-VFCE[dP]DWLTWE(NH(CH2)3NHDOTA)C-NH2; linker 3-12 via mXylylene)
IC50 [1, 4]: < 10 nM | t1/2 category (activity) [2]: B (t1/2 between 5.1 and 15.0 minutes) | Kd [2]: < 10 nM | % intact compound remaining (incubation time) ([3]; 24 h): >95%

More lines, now with the values ahead:

IC50 [1, 4]: < 10 nM | t1/2 category (activity) [2]: C (t1/2 between 2.1 and 5.0 minutes) | Kd [2]: < 10 nM | % intact compound remaining (incubation time) ([3]; 24 h): >95%
SMILES: CC(C)C[C@@H]1NC(=O)[C@H](Cc2c[nH]c3ccccc23)NC(=O)[C@@H]2CCCCNC(=O)CC[C@H](NC1=O)C(=O)N[C@@H](Cc1c[nH]c3ccccc13)C(=O)N[C@@H](CO)C(=O)N[C@H](C(N)=O)CSCc1cccc(c1)CSC[C@H](NC(=O)[C@H](Cc1ccc(O)cc1)NC(=O)CN1CCN(CC(=O)O)CCN(CC(=O)O)CCN(CC(=O)O)CC1)C(=O)N[C@@H](CCC(=O)O)C(=O)N1CCC[C@@H]1C(=O)N2 [3BP-3934, DOTA-Tyr-[Cys(3MeBn)-Glu-pro-{Lys-Trp-Leu-Glu}-Trp-Ser-Cys]-NH2] ({DOTA}-YCE[dP]KWLEWSC-NH2; linker 2-11 via mXylylene; lactam 5-8)

IC50 ([1]; FACS binding assay, HT-29 cells, competition with tracer 3BP-2776 (10 nM, biotin-labeled)): < 10 nM | t1/2 category (activity) [2]: A (t1/2>15.0 minutes) | Kd [2]: < 10 nM | % intact compound remaining (incubation time) ([3]; 24 h): 81%
SMILES: CC(C)C[C@@H]1NC(=O)[C@H](Cc2c[nH]c3ccccc23)NC(=O)[C@H](CC(N)=O)NC(=O)[C@H]2CCCN2C(=O)[C@H](CCC(=O)O)NC(=O)[C@@H](NC(=O)[C@H](Cc2ccc(O)cc2)NC(=O)[C@@H](NC(=O)CN2CCC(NC(=O)CN3CCN(CC(=O)O)CCN(CC(=O)O)CCN(CC(=O)O)CC3)CC2)C(C)C)CSCc2cccc(c2)CSC[C@@H](C(N)=O)NC(=O)[C@H](CO)NC(=O)[C@H](Cc2c[nH]c3ccccc23)NC(=O)[C@H]([C@@H](C)O)NC1=O [3BP-4103] ({DOTA}-[X2]VYCE[dP]NWLTWSC-NH2; linker 4-13 via mXylylene)
